Laboratory results published in patent EP0917465B1, “ANTIMALARIAL AND ANTI-BABESIOSIS AGENTS AND PHARMACEUTICAL COMPOSITIONS CONTAINING THE SAME AGENTS” (priority 1996, dated 1998).
pIC50: −log10 of the molar value. Read-outs that look alike come from different tables or passages of the source.

Key:
[1] = tested on: Plasmodium falciparum; assay: In vitro antimalarial activity, (3H) hypoxanthine incorporation in infected human erythrocytes (Desjardins test); assay type: cell-based; details: concentration inhibiting in vitro parasite growth by 50 %, human erythrocytes infected with Plasmodium falciparum, 24 h contact, test lasts 60 to 70 h, read-out: IC50 exprimée en micromoles
Source text: L'activité antipaludéenne des dérivés selon les exemples précédents est testée sur l'humain infesté par Plasmodium falciparum. Le produit à tester est mis en contact avec les érythrocytes humains infectés pendant 24 heures. Un précurseur radioactif d'acides nucléiques l'Hypoxanthine (^3H) est ensuite ajouté. Le précurseur ne s'incorpore que dans les cellules infectées par un parasite en croissance, c'est à dire dans les cellules que la drogue n'aura pas affectées.
L'aptitude ou non à incorporer le précurseur reflète donc la viabilité des cellules impaludées. La durée des tests est de 60 à 70 heures ( test de DESJARDINS R.E. , CANFIELD C.J., HATNES J.D. et CHULAY J.D., Antimicrob. Agents Chemother. 1979, 16, p 710-718 ). Les résultats sont consignés dans le tableau I ci-après, sous forme de IC50 (ou DE50), soit la concentration de produit dans le milieu expérimental capable d'inhiber in vitro la croissance du parasite d'une valeur de 50%.

[2] = tested on: Babesia Bovis, Babesia Canis; assay: In vitro anti-Babesia activity, (3H) hypoxanthine incorporation; assay type: cell-based; details: class of ID 50 for (3H) hypoxanthine incorporation; read-out: Activité/ Babesia à 10 millimole
Source text: Le procédé de criblage d'activité anti-malaria, basé sur l'incorporation de l'(^3H) Hypoxanthine par le parasite, est utilisé pour tester l'activité anti-métabolique de tels composés sur Babesia Bovis, Babesia Canis. Une relation étroite est trouvée entre le taux d'incorporation de (^3H) Hypoxanthine dans une mesure standard et le pourcentage de cellules parasitées, déterminé par examen microscopique. Cette activité métabolique est quantifiée et évaluée dans le tableau ci-dessous par la cotation +++ pour les molécules affichant dans le test une inhibition de 50 % de l'incorporation de (^3H) Hypoxanthine (ID 50), ces molécules étant à une concentration inférieure ou égale à 0,01 Micromolaire. La cotation est de ++ pour la même activité à une concentration de 0,01 à 0.1 micromolaire et enfin de + pour une concentration inférieure ou égale à 1 Micromolaire.

[3] = Plasmodium falciparum, Erythrocyte

SMILES	pIC50 [1, 3]	pIC50 [2]	pIC50 ([1]; Erythrocyte)	pIC50 [1]
CCC[N+](C)(CC)CCCCCCCCCCCCCCCCCCCC[N+](C)(CC)CCC (centres unmarked) [EXEMPLE 6, N, N'-dimethyl-N, N'-diethyl-N, N'-dipropyl-1,20-eicosanediaminium, dibromure]	8.52	7.00 to 8.00	–	–
C[N+]1(CCCCCCCCCCCCCCCC[N+]2(C)CCCC2)CCCC1 [EXEMPLE 17, 1,1-(1,16-hexadecanediyl) bis (1-methylpyrrolidinium) dibromure]	–	> 8.00	9.22	–
CCC[N+](C)(CC)CCCCCCCCCCCCCCCCC[N+](C)(CC)CCC (centres unmarked) [EXEMPLE 4, N,N'-dimethyl-N, N'-diethyl-N, N'-dipropyl-1, 17-heptadecanediaminium, dibromure]	8.70	7.00 to 8.00	–	–
CCCCCCCCCCCC[N+](C)(C)CCCCCCCCCCCCCCCC[N+](C)(C)CCCCCCCCCCCC [EXEMPLE 22, N,N'-didodecyl-N,N,N',N'-tetramethyl- 1,16 hexadecanediaminium dibromure]	6.00	7.00 to 8.00	–	–
CCC[N+](CCC)(CCO)CCCCCCCCCCCCCCCCCCCC[N+](CCC)(CCC)CCO [EXEMPLE 30, N, N'-di-(2-hydroxyethyl)-N, N, N', N'-tetrapropyl-1,20-eicosanediaminium dibromure]	9.52	> 8.00	–	–
CCC[N+](CCC)(CCC)CCCCCCCCCCCCCCCC[N+](CCC)(CCC)CCC [EXEMPLE 12, N, N, N, N', N', N' hexapropyl-1,16-hexadecanediaminium, dibromure]	–	7.00 to 8.00	–	9.00
CCC[N+](CCC)(CCO)CCCCCCCCCCCCCC[N+](CCC)(CCC)CCO [EXEMPLE 27, N, N'-di-(2-hydroxyethyl) -N, N, N', N'-tetrapropyl-1, 14 tetradecane diaminium dibromure]	8.00	7.00 to 8.00	–	–
CCC[N+](CCC)(CCO)CCCCCCCCCCCCCCCC[N+](CCC)(CCC)CCO [EXEMPLE 29, N, N'-di-(2-hydroxyethyl) -N, N, N', N'-tetrapropyl-1, 1 6 hexadecane diaminium dibromure]	8.30	7.00 to 8.00	–	–
CCC[N+](C)(CC)CCCCCCCCCCCCCCCCCCCCCC[N+](C)(CC)CCC (centres unmarked) [EXEMPLE 7, N,N'-dimethyl-N, N'-diethyl-N, N'-dipropyl-1,22-Cosanediaminium, dibromure]	8.00	7.00 to 8.00	–	–
CCC[N+](C)(CC)CCCCCCCCCCCCCCCCCC[N+](C)(CC)CCC (centres unmarked) [EXEMPLE 5, N,N'-dimethyl-N,N'-diethyl-N,N'-dipropyl-1,18-octadecanediaminium, dibromure]	9.00	> 8.00	–	–
C#CC[N+](C)(C)CCCCCCCCCCCCCC[N+](C)(C)CC#C [EXEMPLE 24, N,N'-di (2-propynyl)-N,N,N',N'-tetramethyl-1,14-tetradecane diaminium dibromure]	8.15	7.00 to 8.00	–	–
CCCCCCCCCCCC[N+](C)(C)CCCCCCCCCCCCCCCCCC[N+](C)(C)CCCCCCCCCCCC [EXEMPLE 23]	7.00	6.00 to 7.00	–	–
CCC[N+](CCC)(CCC)CCCCCCCCCCCCCCCC[N+](CCC)(CCC)CCC [EXEMPLE 9, N, N, N, N', N', N' hexapropyl-1, 16-hexadecanediaminium, dibromure]	–	> 8.00	–	8.15
CCC[N+](CCC)(CCC)CCCCCCCCCCCCCCCCCCCCCCCC[N+](CCC)(CCC)CCC [EXEMPLE 11, N, N, N, N', N', N' hexapropyl-1,24-tetracosanediaminium, dibromure]	5.80	6.00 to 7.00	–	–
C[N+]1(CCCCCCCCCCCCCCCC[N+]2(C)CCOCC2)CCOCC1 [EXEMPLE 21, 1,1'-(1.16-hexadecanediyl) bis (1-methylmorpholinium) dibromure]	9.00	> 8.00	–	–
CC[N+](C)(CC)CCCCCCCCCCCCCCCC[N+](C)(CC)CC [EXEMPLE 13, N,N'-dimethyl-N,N,N',N'-tetraethyl-1,16-hexadecanediaminium, dibromure]	9.30	> 8.00	–	–
